In general, IC50 refers to the point on the concentration scale where inhibition reaches its midpoint. As usually defined, the inhibition is the drop in the measured response relative to a control, in per cent.

Test [1] concerns A549. The experiment in a line: Antiproliferative activity against human A549 cells assessed as reduction in cell viability after 48 hrs by MTT assay. It counts as functional, cell-based. The conditions noted are these: A549, 48 h. In general terms: Formazan colour is commonly taken as a measure of viable cells.
A short description of test [2]: Cytotoxicity against human F180 cells assessed as reduction in cell viability after 48 hrs by MTT assay. It counts as cell-based. The note with it: F180, 48 h.
Test [3] concerns the target T1, Ectonucleotide pyrophosphatase/phosphodiesterase family member 1 (Homo sapiens, UniProt P22413).
T1 sequence (P22413 whole entry): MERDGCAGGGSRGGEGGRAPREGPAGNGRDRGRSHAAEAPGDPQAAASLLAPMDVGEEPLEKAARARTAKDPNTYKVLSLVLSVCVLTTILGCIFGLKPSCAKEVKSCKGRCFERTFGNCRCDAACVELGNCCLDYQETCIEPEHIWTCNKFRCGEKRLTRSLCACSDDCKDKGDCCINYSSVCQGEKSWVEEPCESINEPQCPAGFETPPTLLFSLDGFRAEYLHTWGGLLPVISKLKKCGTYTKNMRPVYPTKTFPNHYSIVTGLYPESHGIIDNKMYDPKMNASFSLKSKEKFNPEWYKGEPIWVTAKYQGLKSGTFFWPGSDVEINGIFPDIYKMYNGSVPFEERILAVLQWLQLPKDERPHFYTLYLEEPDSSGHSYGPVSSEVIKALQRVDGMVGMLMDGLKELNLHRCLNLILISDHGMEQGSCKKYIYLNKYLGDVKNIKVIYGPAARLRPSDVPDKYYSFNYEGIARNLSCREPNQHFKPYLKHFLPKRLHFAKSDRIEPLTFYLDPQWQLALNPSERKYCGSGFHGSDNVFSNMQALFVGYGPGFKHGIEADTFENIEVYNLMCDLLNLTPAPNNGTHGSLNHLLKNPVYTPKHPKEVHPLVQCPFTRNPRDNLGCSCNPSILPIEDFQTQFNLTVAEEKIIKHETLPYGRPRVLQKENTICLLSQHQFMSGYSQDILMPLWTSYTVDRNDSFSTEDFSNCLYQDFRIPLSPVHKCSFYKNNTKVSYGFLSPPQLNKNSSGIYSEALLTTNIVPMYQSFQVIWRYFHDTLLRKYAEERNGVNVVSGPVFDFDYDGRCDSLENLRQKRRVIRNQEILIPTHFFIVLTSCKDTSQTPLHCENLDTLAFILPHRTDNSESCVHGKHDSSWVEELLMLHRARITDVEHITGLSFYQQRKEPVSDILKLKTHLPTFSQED
The experiment in a line: Inhibition of human NPP1 expressed in COS-7 cell membranes assessed as reduction in p-nitrophenol production using pNP-TMP as substrate preincubated with enzyme for 15 mins followed by substrate addition and measured after 35 mins.

Test [4] has as its system MCF7. The experiment in a line: Antiproliferative activity against human MCF7 cells assessed as cell viability at 10 uM after 72 hrs by MTT assay relative to control. It counts as functional. The note with it: MCF7, 72 h, read-out: Activity.
Test [5] relates to A549. The experiment in a line: Antiproliferative activity against human A549 cells assessed as cell viability at 10 uM after 72 hrs by MTT assay relative to control. It counts as functional. The conditions noted are these: A549, 72 h, read-out: Activity.
Test [6] deals with HT-29. The experiment in a line: Antiproliferative activity against human HT-29 cells assessed as cell viability at 10 uM after 72 hrs by MTT assay relative to control. The note with it: HT-29, 72 h, read-out: Activity. Format: functional.
Test [7] has as its system MCF7. Description: Antiproliferative activity against human MCF7 cells assessed as reduction in cell viability after 48 hrs by MTT assay. It counts as functional, cell-based. The note with it: MCF7, 48 h.
Test [8] has as its target T2, Ectonucleotide pyrophosphatase/phosphodiesterase family member 3 (Homo sapiens) (UniProt O14638).
T2 sequence (whole entry): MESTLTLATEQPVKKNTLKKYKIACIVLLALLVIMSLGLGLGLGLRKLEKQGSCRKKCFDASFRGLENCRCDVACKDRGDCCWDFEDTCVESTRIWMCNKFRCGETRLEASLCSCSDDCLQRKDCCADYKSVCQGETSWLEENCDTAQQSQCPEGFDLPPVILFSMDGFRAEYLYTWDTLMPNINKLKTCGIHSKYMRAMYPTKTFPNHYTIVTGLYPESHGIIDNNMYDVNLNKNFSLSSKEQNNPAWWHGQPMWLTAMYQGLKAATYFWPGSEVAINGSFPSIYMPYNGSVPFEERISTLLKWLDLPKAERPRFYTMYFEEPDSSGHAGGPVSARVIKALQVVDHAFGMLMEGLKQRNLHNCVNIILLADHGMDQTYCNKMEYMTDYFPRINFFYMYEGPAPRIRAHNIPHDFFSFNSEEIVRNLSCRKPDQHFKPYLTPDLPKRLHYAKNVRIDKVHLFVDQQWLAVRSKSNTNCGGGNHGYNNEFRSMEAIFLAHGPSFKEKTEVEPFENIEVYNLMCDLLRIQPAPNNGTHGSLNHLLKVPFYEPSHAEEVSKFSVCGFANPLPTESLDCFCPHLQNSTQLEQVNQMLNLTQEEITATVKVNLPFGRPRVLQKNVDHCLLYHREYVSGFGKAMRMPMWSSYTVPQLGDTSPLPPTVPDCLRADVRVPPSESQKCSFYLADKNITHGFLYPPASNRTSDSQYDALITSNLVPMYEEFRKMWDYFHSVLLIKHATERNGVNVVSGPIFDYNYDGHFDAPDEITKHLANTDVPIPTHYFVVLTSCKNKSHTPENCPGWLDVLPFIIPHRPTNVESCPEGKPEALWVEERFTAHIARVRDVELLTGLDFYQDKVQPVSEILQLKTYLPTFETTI
Description: Inhibition of human NPP3 expressed in COS-7 cell membranes assessed as reduction in p-nitrophenol production at 100 uM using pNP-TMP as substrate preincubated with enzyme for 15 mins followed by substrate addition and measured after 35 mins relative to control.

For test [9], the system named is HT-29. The experiment in a line: Antiproliferative activity against human HT-29 cells assessed as reduction in cell viability after 48 hrs by MTT assay. The conditions noted are these: HT-29, 48 h. It counts as functional, cell-based.
The target in test [10] is T3, Ectonucleotide pyrophosphatase/phosphodiesterase family member 1 (Homo sapiens) (UniProt P22413).
T3 sequence (whole entry): T1 sequence (P22413 whole entry)
Description: Inhibition of human NPP1 expressed in COS-7 cell membranes assessed as reduction in p-nitrophenol production at 100 uM using pNP-TMP as substrate preincubated with enzyme for 15 mins followed by substrate addition and measured after 35 mins relative to control.

The target in test [11] is T4, Ectonucleotide pyrophosphatase/phosphodiesterase family member 3 (Homo sapiens, UniProt O14638).
T4 sequence (O14638 whole entry): T2 sequence (whole entry)
Description: Inhibition of human NPP3 expressed in COS-7 cell membranes assessed as reduction in p-nitrophenol production using pNP-TMP as substrate preincubated with enzyme for 15 mins followed by substrate addition and measured after 35 mins.

Test [12] is described as follows: Selectivity index, ratio of IC50 for human F180 cells to IC50 for human HT-29 cells.

The structures appear in SMILES notation. Structures can show the parent of a compound that is named as a salt.

Consider `CN(C)S(=O)(=O)Oc1ccc(-c2sc3cc(OS(=O)(=O)N(C)C)ccc3c2C(=O)c2ccc(OCCN3CCCCC3)cc2)cc1`, for which the IC50 in the test on A549 [1] is over 15 µM; in test [2], 14 µM; in test [3], 4.24 µM; in the test with MCF7 [7] it was 3.4 µM; with HT-29 [9], 1.5 µM. In addition, the viability at 10 µM with MCF7 [4] worked out at 58%; in the test on A549 [5] it was 91.8%; in the test on HT-29 [6], 25%. Further, the inhibition in test [8] was determined as 43.7%.

For the molecule `O=C(c1ccc(OCCN2CCCCC2)cc1)c1c(-c2ccc(OS(=O)(=O)C3CCCCC3)cc2)sc2cc(OS(=O)(=O)C3CCCCC3)ccc12`, the inhibition in [10] is 30%. Also, the IC50 in test [11] worked out at 0.49 µM. Further, the viability at 10 µM is 136% in the test with MCF7 [4], 104% with A549 [5] and 109% in the test with HT-29 [6].

Take `CC(C)(C)c1ccc(S(=O)(=O)Oc2ccc(-c3sc4cc(OS(=O)(=O)c5ccc(C(C)(C)C)cc5)ccc4c3C(=O)c3ccc(OCCN4CCCCC4)cc3)cc2)cc1`: the IC50 with A549 [1] turned out to be 6.7 µM; in test [11] it was 0.71 µM; in test [2] it was 11.8 µM; in test [3], 0.29 µM; with MCF7 [7], 3.2 µM; in the test on HT-29 [9], 1.4 µM. In addition, the figures for the viability at 10 µM in the test on MCF7 [4], in the test with A549 [5] and in the test with HT-29 [6] were 12.1%, 7.3% and 9.9%, respectively. Also, the “Ratio IC50” value in [12] is reported as 8.43.

Turning to `O=C(c1ccc(OCCN2CCCCC2)cc1)c1c(-c2ccc(OS(=O)(=O)c3ccc(F)cc3)cc2)sc2cc(OS(=O)(=O)c3ccc(F)cc3)ccc12`, the IC50 in test [11] is 1.81 µM; in test [3], 8.88 µM. Besides, the viability at 10 µM came to 115% in the test on MCF7 [4], 105% in the test with A549 [5] and 108% in the test on HT-29 [6].

For `CNS(=O)(=O)Oc1ccc(-c2sc3cc(OS(=O)(=O)NC)ccc3c2C(=O)c2ccc(OCCN3CCCCC3)cc2)cc1`, the IC50 in the test with A549 [1] was 13 µM; in test [11], 1.55 µM; in test [2], over 15 µM; in the test with MCF7 [7], 6 µM; in the test on HT-29 [9] it was 1.7 µM. Also, the inhibition in test [10] was 36%. For the same molecule, the results for the viability at 10 µM in the test on MCF7 [4], in the test on A549 [5] and with HT-29 [6] were 37.2%, 58.9% and 11.5%, respectively.

Consider `O=C(c1ccc(OCCN2CCCCC2)cc1)c1c(-c2ccc(O)cc2)sc2cc(O)ccc12` [RALOXIFENE HYDROCHLORIDE], for which the IC50 (in the test on A549 [1]; in [2]; in the test on MCF7 [7]; in the test on HT-29 [9]) was over 15 µM in each case. The results for the viability at 10 µM in the test on MCF7 [4], in the test on A549 [5] and in the test with HT-29 [6] were 77.7%, 87% and 107%, respectively.

Take `COc1ccc(S(=O)(=O)Oc2ccc(-c3sc4cc(OS(=O)(=O)c5ccc(OC)cc5)ccc4c3C(=O)c3ccc(OCCN4CCCCC4)cc3)cc2)cc1`: the IC50 was 1.24 µM in test [11] and 0.42 µM in [3]. For the same molecule, the viability at 10 µM came out at 127% in the test with MCF7 [4], 99.4% in the test with A549 [5] and 89.3% with HT-29 [6].

`O=C(c1ccc(OCCN2CCCCC2)cc1)c1c(-c2ccc(OS(=O)(=O)c3ccc(C(F)(F)F)cc3)cc2)sc2cc(OS(=O)(=O)c3ccc(C(F)(F)F)cc3)ccc12`: the IC50 in the test on A549 [1] is over 15 µM; in test [11], 0.23 µM; in test [2], over 15 µM; in test [3] it was 4.01 µM; with MCF7 [7] it was over 15 µM; in the test on HT-29 [9], 4 µM. Moreover, the figures for the viability at 10 µM in the test with MCF7 [4], with A549 [5] and in the test with HT-29 [6] were 41%, 67.7% and 17.4%, respectively.

In the case of `O=C(c1ccc(OCCN2CCCCC2)cc1)c1c(-c2ccc(OS(=O)(=O)c3cccc4cccnc34)cc2)sc2cc(OS(=O)(=O)c3cccc4cccnc34)ccc12`, the results for the inhibition in test [10] and in [8] were 28.7% and 42.5%, respectively. The viability at 10 µM in the test on MCF7 [4] stood at 129%; in the test on A549 [5], 99.2%; in the test with HT-29 [6] it was 110%.

As to `CCS(=O)(=O)Oc1ccc(-c2sc3cc(OS(=O)(=O)CC)ccc3c2C(=O)c2ccc(OCCN3CCCCC3)cc2)cc1`, in test [10], the inhibition was 35.1%. Further, the IC50 in test [11] is 1.51 µM. The viability at 10 µM worked out at 118% in the test with MCF7 [4], 90.2% with A549 [5] and 62.2% in the test with HT-29 [6].

As to `Cc1ccc(S(=O)(=O)Oc2ccc(-c3sc4cc(OS(=O)(=O)c5ccc(C)cc5)ccc4c3C(=O)c3ccc(OCCN4CCCCC4)cc3)cc2)cc1`, in [3], the IC50 came to 0.45 µM. The viability at 10 µM with MCF7 [4] is 116%; with A549 [5] it was 95.2%; in the test on HT-29 [6], 72.4%. For the same molecule, in test [8], the inhibition worked out at 38.5%.

The values are drawn from ChEMBL document CHEMBL4311954, “Synthesis, biological evaluation, and docking studies of new raloxifene sulfonate or sulfamate derivatives as inhibitors of nucleotide pyrophosphatase/phosphodiesterase” (Eur J Med Chem, 2019).
